Reference: ChEMBL document CHEMBL4665873, “Exploring the physicochemical and antiproliferative properties of biaryl-linked [13]-macrodilactones” (2020)

test: Antiproliferative activity against mouse ASZ cells assessed as reduction in cell viability after 72 hrs by MTS/PMS assay; type: functional

Row | SMILES | GI50 [µM]
1 | CN(C)c1cccc(-c2ccc(C3C/C=C/CCC(=O)OCCCOC3=O)cc2)c1 (stereo not drawn) | ≥ 75
2 | O=C1CC/C=C/CC(c2ccc(-c3cccc(O)c3)cc2)C(=O)OCCCO1 (stereo not drawn) | 12.1
3 | O=C1CC/C=C/CC(c2ccc(-c3ccncc3)cc2)C(=O)OCCCO1 (stereo not drawn) | ≥ 75
4 | O=C1CC/C=C/CC(c2ccc(-c3cnn(Cc4ccccc4)c3)cc2)C(=O)OCCCO1 (stereo not drawn) | ≥ 100
5 | O=C1CC/C=C/CC(c2ccc(-c3ccccc3)cc2)C(=O)OCCCO1 (stereo not drawn) | ≥ 100
6 | COc1cc(-c2ccc(C3C/C=C/CCC(=O)OCCCOC3=O)cc2)c(OC)nn1 (stereo not drawn) | 19.7
7 | O=C1CC/C=C/CC(c2ccc(-c3cccnc3)cc2)C(=O)OCCCO1 (stereo not drawn) | 40.9
8 | Cc1noc(C)c1-c1ccc(C2C/C=C/CCC(=O)OCCCOC2=O)cc1 (stereo not drawn) | ≥ 75
